Patent US20260109707A1, “HETEROBIFUNCTIONAL COMPOUNDS AND METHODS OF TREATING DISEASE” (Halda Therapeutics OpCo. Inc., priority 2022, published 2026)
Where two headings read alike, the source gives them in different places.

How the values were obtained:
[1] = tested on: T-Rex 293 cell line SC3 cells having increased expression of androgen receptor protein due to exposure to doxycycline; assay: Cellular growth inhibition assay, T-Rex 293 SC3 cells with doxycycline (CellTiter-Glo, 72 hours); type: cell-based; settings: T-Rex 293 SC3 cells with increased androgen receptor expression due to doxycycline (10 ng/mL)
Method: (§1) The following types of cells were prepared for this experiment: (i) a T-Rex 293 cell line having increased expression of androgen receptor protein due to exposure to doxycycline and (ii) a T-Rex 293 cell line lacking increased expression of androgen receptor protein. Ability of the test compounds to inhibit proliferation of the foregoing cell types was evaluated according to the procedures set forth below.
(§2) The doxycycline-inducible androgen receptor protein expressing cell line was established using the following protocol: T-Rex 293 cells were purchased from Invitrogen (Cat #R71007) and transfected using Lipofectamine 2000 with the wild-type androgen receptor protein sequence cloned into the pcDNA4/TO vector. Transfected cells were selected using 400 μg/mL Zeocin (Invitrogen Cat #R25001). Following selection, single clones were raised and maintained in Dulbecco's Modified Eagle Medium (DMEM) supplemented with 10% w/w Tetracycline-free fetal bovine serum (FBS) and 250 μg/mL Zeocin. Clones were analyzed for expression of androgen receptor protein in the presence and absence of 10 ng/mL doxycycline (Sigma Cat #D9891), and a single doxycycline-inducible clone (hereinafter “SC3”) was selected for use in downstream assays.
(§3) The SC3 cells were seeded on poly-D-lysine coated, black clear-bottom 384-well plates at 2500/well, in 25 μL Phenol Red Free Dulbecco's Modified Eagle Medium (DMEM) supplemented with 10% w/w charcoal-dextran treated fetal bovine serum (FBS) and 1% w/w pen-strep, with or without 10 ng/mL doxycycline. Pen-Strep is a commercially available mixture of penicillin G and streptomycin, which is used in mammalian cell culture media to prevent bacterial contamination. Phenol Red Free Dulbecco's Modified Eagle Medium (DMEM) supplemented with 10% w/w charcoal-dextran treated fetal bovine serum (FBS) and 1% w/w pen-strep, with or without 10 ng/mL doxycycline is herein referred to as Treatment Medium. Following seeding of cells in the plates, the plates were spun at 300×g for 30 seconds, then equilibrated to room temperature for 30 minutes, and then deposited in a humidified tissue culture incubator maintained at 37° C. with 5% CO2.
(§4) At 24 hours after seeding of the cells, dilutions of test compound were prepared in DMSO and dissolved in Treatment Medium, to achieve a final DMSO concentration of 0.5% w/w, thereby providing the Test Compound Solution. A 25 μL aliquot of the Test Compound Solution was added to cells in the well plates. An equal volume of a solution containing DMSO and Treatment Medium was used as a negative control. Following treatment of cells with Test Compound Solution or said equal volume of a solution containing DMSO and Treatment Medium, the plates were spun at 300×g for 30 seconds, and then left in an incubator for 72 hours.
(§5) At the end of the treatment duration, cell viability was quantified with CellTiter-Glo 2.0 reagent (Promega Cat #G9243). For this purpose, plates were equilibrated to room temperature for 30 minutes, and then 25 μL of CellTiter-Glo 2.0 reagent was added to cells in the plate wells. Plates were then agitated on a shaker for two minutes at 500 rpm and subsequently incubated at room temperature for 10 minutes. Following incubation, the plates were spun at 3000×g for 30 seconds, then sealed with an optical adhesive cover, and luminescence readings were measured with an EnVision Plate Reader.
(§6) Data was normalized using zero luminescence for baseline. A four-parameter non-linear regression curve fit was applied to dose-response data in GraphPad Prism data analysis software to determine the half-maximal growth inhibitory concentration (GI50) for each test compound.

[2] = tested on: T-Rex 293 cell line SC3 cells lacking increased expression of androgen receptor protein; assay: Cellular growth inhibition assay, T-Rex 293 SC3 cells without doxycycline (CellTiter-Glo, 72 hours); type: cell-based; settings: T-Rex 293 cell line SC3 cells not exposed to doxycycline (lacking increased androgen receptor expression)
Method: as §1, §2, §3, §4, §5, §6

[3] = tested on: VCaP cells; assay: Cellular growth inhibition assay for VCaP cells (CellTiter-Glo, 72 hours); type: cell-based, human
Method: VCaP cells were purchased from American Type Cell Culture (ATCC Cat #CRL2876) and then seeded on poly-D-lysine coated, black clear-bottom 384-well plates at 5000/well in 25 μL Dulbecco's Modified Eagle Medium (DMEM) supplemented with 10% w/w Fetal bovine serum (FBS) and 1% w/w Pen-Strep. Pen-Strep is a commercially available mixture of penicillin G and streptomycin, which is used in mammalian cell culture media to prevent bacterial contamination. Dulbecco's Modified Eagle Medium (DMEM) supplemented with 10% w/w fetal bovine serum (FBS) and 1% w/w Pen-Strep is herein referred to as Treatment Medium. Following seeding of cells in the plates, the plates were spun at 300×g for 30 seconds, then equilibrated to room temperature for 30 minutes, and then deposited in a humidified tissue culture incubator maintained at 37° C. with 5% C0-2.
as §4, §5, §6

SMILES	GI50 [1]	GI50 [2]	GI50 [3]	GI50 ([1]; 72 h)	GI50 ([2]; 72 h)	GI50 ([3]; Homo sapiens, VCaP, 72 h)
Cc1sc2c(c1C)C(c1ccc(OC3CCC4(CCCN(c5ccc(C(=O)N[C@H]6CC[C@H](Oc7ccc(C#N)c(Cl)c7)CC6)nn5)C4)C3)cc1)=N[C@@H](C)c1nnc(C)n1-2 (stereo partly drawn) [I-538]	< 500 nM	> 3000 nM	< 500 nM	–	–	–
Cc1sc2c(c1C)C(c1ccc(CC3CN(C(C)(C)C4CCN(c5ccc(C(=O)N[C@H]6CC[C@H](Oc7ccc(C#N)c(Cl)c7)CC6)nn5)CC4)C3)cc1)=N[C@@H](C)c1nnc(C)n1-2 [I-640]	–	–	–	< 500 nM	> 3000 nM	< 500 nM
Cc1sc2c(c1C)C(c1ccc(OCC3CC4(CCCN(c5ccc(C(=O)N[C@H]6CC[C@H](Oc7ccc(C#N)c(Cl)c7)CC6)nn5)C4)C3)cn1)=NC1(CC1)c1nnc(C)n1-2 (stereo partly drawn) [I-597]	< 500 nM	> 3000 nM	< 500 nM	–	–	–
Cc1sc2c(c1C)C(c1ccc(CC3CCC4(CCCN(c5ccc(C(=O)N[C@H]6CC[C@H](Oc7ccc(C#N)c(Cl)c7)CC6)nn5)C4)C3)cc1)=N[C@@H](C)c1nnc(C)n1-2 (stereo partly drawn) [I-582]	–	< 500 nM	–	< 500 nM	–	> 3000 nM
Cc1sc2c(c1C)C(c1ccc(C3CCC4(CCN(c5ccc(C(=O)N[C@H]6CC[C@H](Oc7ccc(C#N)c(Cl)c7)CC6)nn5)CC4)C3)cc1)=NC1(CC1)c1nnc(C)n1-2 (stereo partly drawn) [I-520]	< 500 nM	> 3000 nM	< 500 nM	–	–	–
Cc1sc2c(c1C)C(c1ccc(N3CCC4(CCN(c5ccc(C(=O)N[C@H]6CC[C@H](Oc7ccc(C#N)c(Cl)c7)CC6)nn5)C4)C3)c(F)c1)=N[C@@H](C)c1nnc(C)n1-2 (stereo partly drawn) [I-731]	–	–	500 to 1500 nM	< 500 nM	< 500 nM	–
Cc1sc2c(c1C)C(c1cccc(OC3CC4(CCN(c5ccc(C(=O)N[C@H]6CC[C@H](Oc7ccc(C#N)c(Cl)c7)CC6)nn5)CC4)C3)c1)=N[C@@H](C)c1nnc(C)n1-2 [I-648]	–	–	–	< 500 nM	500 to 1500 nM	< 500 nM
Cc1sc2c(c1C)C(c1ccc(C#CC3CC4(CCCN(c5ccc(C(=O)N[C@H]6CC[C@H](Oc7ccc(C#N)c(Cl)c7)CC6)nn5)C4)C3)cn1)=NC(C)c1nnc(C)n1-2 (stereo partly drawn) [I-481]	–	< 500 nM	< 500 nM	< 500 nM	–	–
Cc1sc2c(c1C)C(c1ccc(N3CCC4(CCN(c5ccc(C(=O)N[C@H]6CC[C@H](Oc7ccc(C#N)c(Cl)c7)CC6)nn5)CC4)C3)cc1)=NC(C(F)(F)F)c1nnc(C)n1-2 (stereo partly drawn) [I-727]	> 3000 nM	> 3000 nM	< 500 nM	–	–	–
Cc1sc2c(c1C)C(c1ccc(COC3CCC4(C3)CN(c3ccc(C(=O)N[C@H]5CC[C@H](Oc6ccc(C#N)c(Cl)c6)CC5)nn3)CCO4)cc1)=N[C@@H](C)c1nnc(C)n1-2 (stereo partly drawn) [I-557]	–	< 500 nM	–	< 500 nM	–	< 500 nM
Cc1sc2c(c1C)C(c1ccc(C3CN(C4CCN(c5ccc(C(=O)N[C@H]6CC[C@H](Oc7ccc(C#N)c(Cl)c7)CC6)nn5)CC4)C3)cc1)=NC1(CC1)c1nnc(C)n1-2 [I-552]	–	–	–	< 500 nM	1500 to 3000 nM	> 3000 nM
Cc1sc2c(c1C)C(c1ccc(OC3CC4(CCCN(c5ccc(C(=O)N[C@H]6CC[C@H](Oc7ccc(C#N)c(Cl)c7)CC6)nn5)C4)C3)cc1)=NCc1nnc(C)n1-2 (stereo partly drawn) [I-473]	–	–	–	< 500 nM	> 3000 nM	< 500 nM
COCC[C@@H]1N=C(c2ccc(C3CCC4(CC3)CCN(c3ccc(C(=O)N[C@H]5CC[C@H](Oc6ccc(C#N)c(Cl)c6)CC5)nn3)C4)cc2)c2c(sc(C)c2C)-n2c(C)nnc21 (single isomer, unassigned) [I-618]	< 500 nM	< 500 nM	< 500 nM	–	–	–
Cc1sc2c(c1C)C(c1ccc(OC3CCC4(C3)CN(c3ccc(C(=O)N[C@H]5CC[C@H](Oc6ccc(C#N)c(Cl)c6)CC5)nn3)CCO4)cc1)=NC1(CC1)c1nnc(C)n1-2 (stereo partly drawn) [I-507]	< 500 nM	> 3000 nM	> 3000 nM	–	–	–
Cc1sc2c(c1C)C(c1ccc(N3CCC4CN(c5ccc(C(=O)N[C@H]6CC[C@H](Oc7ccc(C#N)c(Cl)c7)CC6)nn5)CCC4C3)cc1)=NC1(CC1)c1nnc(C)n1-2 (stereo partly drawn) [I-563]	< 500 nM	–	500 to 1500 nM	–	< 500 nM	–
Cc1sc2c(c1C)C(c1ccc(OC3CCC4(CCN(c5ccc(C(=O)N[C@H]6CC[C@H](Oc7ccc(C#N)c(Cl)c7)CC6)nn5)C4)C3)cc1)=N[C@@H](C)c1nnc(C)n1-2 (stereo partly drawn) [I-733]	–	–	< 500 nM	< 500 nM	< 500 nM	–
Cc1sc2c(c1C)C(c1ccc(N3C4CCC3CN(c3ncc(C(=O)N[C@H]5CC[C@H](Oc6ccc(C#N)c(Cl)c6)CC5)cn3)C4)cc1)=NC(Cc1ncco1)c1nnc(C)n1-2 (stereo partly drawn) [I-785]	< 500 nM	500 to 1500 nM	–	–	–	> 3000 nM
Cc1sc2c(c1C)C(c1ccc(N[C@H]3CC[C@H](Nc4ncc(C(=O)N[C@H]5CC[C@H](Oc6ccc(C#N)c(Cl)c6)CC5)cn4)CC3)cc1)=NC(Cc1ncco1)c1nnc(C)n1-2 (stereo partly drawn) [I-790]	–	–	–	< 500 nM	< 500 nM	< 500 nM
Cc1sc2c(c1C)C(c1ccc(NCC3CCN(c4ncc(C(=O)N[C@H]5CC[C@H](Oc6ccc(C#N)c(Cl)c6)CC5)cn4)C3)cc1)=NC(Cc1ncco1)c1nnc(C)n1-2 (mixture of isomers) [I-788]	< 500 nM	< 500 nM	< 500 nM	–	–	–
Cc1sc2c(c1C)C(c1ccc(C3CCC4(CCN(c5ccc(C(=O)N[C@H]6CC[C@H](Oc7ccc(C#N)c(Cl)c7)CC6)nn5)CC4)C3)cc1)=N[C@@H](C)c1nnc(C)n1-2 (stereo partly drawn) [I-496]	–	–	< 500 nM	< 500 nM	> 3000 nM	–
CCNC(=O)C[C@@H]1N=C(c2ccc(OCCCOC3CCN(c4ccc(C(=O)N[C@H]5CC[C@H](Oc6ccc(C#N)c(Cl)c6)CC5)nn4)CC3)cc2)c2c(sc(C)c2C)-n2c(C)nnc21 [I-14]	–	–	–	< 500 nM	< 500 nM	< 500 nM
COCC[C@@H]1N=C(c2ccc(CC3CC4(CCN(c5ccc(C(=O)N[C@H]6CC[C@H](Oc7ccc(C#N)c(Cl)c7)CC6)nn5)CC4)C3)cc2)c2c(sc(C)c2C)-n2c(C)nnc21 [I-660]	–	–	–	< 500 nM	500 to 1500 nM	< 500 nM
Cc1sc2c(c1C)C(c1ccc(OC3CCC4(CCCN(c5ccc(C(=O)N[C@H]6CC[C@H](Oc7ccc(C#N)c(Cl)c7)CC6)nn5)C4)C3)cc1)=N[C@@H](C)c1nnc(C)n1-2 (stereo partly drawn) [I-537]	< 500 nM	> 3000 nM	> 3000 nM	–	–	–
Cc1sc2c(c1C)C(c1ccc(OC3CCC4(C3)CN(c3ccc(C(=O)N[C@H]5CC[C@H](Oc6ccc(C#N)c(Cl)c6)CC5)nn3)CCO4)cc1)=N[C@@H](C)c1nnc(C)n1-2 (stereo partly drawn) [I-542]	< 500 nM	< 500 nM	1500 to 3000 nM	–	–	–
Cc1sc2c(c1C)C(c1ccccc1OC1CC3(CCN(c4ccc(C(=O)N[C@H]5CC[C@H](Oc6ccc(C#N)c(Cl)c6)CC5)nn4)CC3)C1)=N[C@@H](C)c1nnc(C)n1-2 [I-651]	–	–	–	> 3000 nM	> 3000 nM	< 500 nM
CC[C@@H]1N=C(c2ccc(OC3(C)CC4(CN(c5ccc(C(=O)N[C@H]6CC[C@H](Oc7ccc(C#N)c(Cl)c7)CC6)nn5)C4)C3)cc2)c2c(sc(C)c2C)-n2c(C)nnc21 [I-632]	–	–	–	< 500 nM	< 500 nM	< 500 nM
